Experimental findings from patent US7989446B2, “4-amino 5-cyanopyrimidine derivatives” (Otsuka Pharmaceutical Co., Ltd., priority 2004, dated 2011) are described below.

Assay [1] addresses T1, adenosine A2a receptor (Human) (Homo sapiens, UniProt P29274).
T1 construct: host or cells: HEK293
Kind of assay: c-AMP generating action in cell expressing adenosine A2a receptor. The conditions noted are these: HEK293 cell expressing human A2a; 100% = c-AMP caused by 1 μM CGS-21680; read-out: A2a Agonistic Action (EC50). The format is cell-based. In a few lines: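 HEK293 cells with human A2a receptor were preincubated 30 min at 37 °C with 0.1 mM IBMX and 2 U/mL adenosine deaminase. Compound was then added for 30 min and cAMP read by EIA. EC50 = concentration giving 50% of the cAMP produced by 1 μM CGS-21680.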

A further assay has as its target T2, A1 receptor (Rattus norvegicus, UniProt P25099).
T2 construct: cerebral cortex of male Wistar rats (Charles River Japan, Inc) was extirpated; from tissue; host or cells: cerebral cortex of male Wistar rats, cell membrane preparation
T2 sequence (P25099 1-326): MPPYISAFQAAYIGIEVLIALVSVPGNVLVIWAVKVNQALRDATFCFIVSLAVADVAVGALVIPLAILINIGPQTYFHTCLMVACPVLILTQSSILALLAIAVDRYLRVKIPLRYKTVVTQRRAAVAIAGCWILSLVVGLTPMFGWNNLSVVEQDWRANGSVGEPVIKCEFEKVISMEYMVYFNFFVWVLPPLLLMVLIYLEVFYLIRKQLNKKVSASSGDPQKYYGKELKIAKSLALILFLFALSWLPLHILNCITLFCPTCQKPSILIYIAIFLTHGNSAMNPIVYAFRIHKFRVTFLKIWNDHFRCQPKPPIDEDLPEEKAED
Kind of assay: Adenosine A1 agonistic action ([35S]GTPγS binding, rat cerebral cortex cell membrane). It is filed as biochemical, male Wistar rats. The conditions noted are these: percentage to 100% of CPA 1 μM. The method, then:
(2) Adenosine A1 Agonistic Action
The test was carried out as mentioned below with reference to the method disclosed in the literature (Shryock J. C. et al., Molecular Pharmacology, (1998) 53, 886-893; Ito H. et al., European Journal of Pharmacology, (1999) 365, 309-315). That is, cerebral cortex of male Wistar rats (Charles River Japan, Inc) was extirpated, thereto Tris buffer (50 mM Tris-HCl: pH 7.4) was added, it was homogenized, and then centrifuged (1000×g, 10 min). The supernatant was taken, and centrifuged (20,000×g, 20 min). After removing off the supernatant, the precipitate was suspended in Tris buffer, and recentrifuged (20,000×g, 20 min). After removing off the supernatant, the precipitate was suspended in Tris buffer including 2 units/mL ADA (adenosine deaminase) and reserved at −80° C. until used as a liquid preparation of cell membrane for the following tests.
The above liquid preparation of cell membrane in an amount corresponding to 10 μg of cell membrane was added to Tris-buffer comprising 5 mM of MgCl2, 1 mM of EDTA, 1 mM of dithiothreitol, 100 mM of NaCl, 0.01 mM of GDP (guanosine diphosphate), 5 mg/mL of BSA and 2 units/mL of ADA and the mixture was incubated at 25° C. for 30 minutes. Additionally, [^35S]GTPγS (Guanosine 5′-[γ-thio]triphosphate) (the final concentration: 0.4 nM) and the test compound of the given concentration (which was calculated based on the final concentration of the test compound) were added to the mixture and the resulting mixture was incubated at 25° C. for 45 minutes. The reaction mixture was filtrated through a glass fiber filter (unifilter-96 GF/B, Perkin Elmer Life Sciences) to quench reaction. The filter was washed 5 times with ice-cooled Tris-buffer including 5 mM MgCl2. The radioactivity of the filter was measured with Top count NXT(Perkin Elmer Life Sciences). The nonspecific binding was shown as the binding activity of [^35S]GTPγS in the presence of 0.01 mM GTPγS.
The activity (%, A1 agonistic action) of each test compound was calculated on the basis of the test result ([^35S]GTPγS binding activity) derived with 1 μM of CPA (N^6-Cyclopentyladenosine, Sigma, code C-8031) in control which was counted as 100%.

The subject of assay [2] is Intraocular Pressure in Rabbit. Kind of assay: Measuring test for intraocular pressure in rabbit. It is filed as in vivo, Female New Zealand white rabbits. Particulars: mean±standard error. In a few lines: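 Female New Zealand white rabbits received 50 μL eye drops of compound in 10 mM phosphate buffer pH 7.5 (suspension if insoluble) in one eye, vehicle as control. IOP measured by pneumatonometer under topical oxybuprocaine before and 0.5–6 h after dosing; reported as ΔIOP from pre-instillation, mmHg, mean±SE.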

Where [3] appears, read: 0.01% ophthalmic solution, test group, 0.5 hr.
Where [4] appears, read: 0.01% ophthalmic solution, test group, 1 hr.
Where [5] appears, read: 0.01% ophthalmic solution, test group, 2 hr.
The mark [6] stands for this setting: 0.01% ophthalmic solution, test group, 3 hr.
Setting [7] is: 0.01% ophthalmic solution, test group, 4 hr.
Where [8] appears, read: 0.01% ophthalmic solution, test group, 6 hr.
The mark [9] stands for this setting: 0.03% ophthalmic solution, rabbit, instillation, 0.5 hr after instillation, difference from pre-instillation.
Setting [10] is: 0.03% ophthalmic solution, rabbit, instillation, 1 hr after instillation, difference from pre-instillation.
Setting [11] is: 0.03% ophthalmic solution, rabbit, instillation, 2 hr after instillation, difference from pre-instillation.
[12] abbreviates: 0.03% ophthalmic solution, rabbit, instillation, 3 hr after instillation, difference from pre-instillation.
Where [13] appears, read: 0.03% ophthalmic solution, rabbit, instillation, 4 hr after instillation, difference from pre-instillation.
Where [14] appears, read: 0.03% ophthalmic solution, rabbit, instillation, 6 hr after instillation, difference from pre-instillation.

T1 sequence (P29274 whole entry): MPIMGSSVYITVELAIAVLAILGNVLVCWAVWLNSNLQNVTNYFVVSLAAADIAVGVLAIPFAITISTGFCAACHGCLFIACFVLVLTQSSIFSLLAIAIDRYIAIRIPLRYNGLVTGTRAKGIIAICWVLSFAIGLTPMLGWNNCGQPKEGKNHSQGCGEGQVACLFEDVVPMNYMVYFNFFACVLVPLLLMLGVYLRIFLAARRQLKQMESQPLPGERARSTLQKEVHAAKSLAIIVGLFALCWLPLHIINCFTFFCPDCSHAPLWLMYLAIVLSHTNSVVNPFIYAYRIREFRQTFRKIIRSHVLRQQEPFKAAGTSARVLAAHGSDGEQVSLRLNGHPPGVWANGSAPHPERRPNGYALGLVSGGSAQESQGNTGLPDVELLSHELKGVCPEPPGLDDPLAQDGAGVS

As usually defined, the EC50 is the midpoint of the concentration-response curve. For the compound `CCN(CC)CCN1CCN(C(=O)CCc2cccc(CSc3nc(N)c(C#N)c(-c4ccc(NC(C)=O)cc4)n3)n2)CC1.Cl` [Example 75, N-{4-[6-amino-5-cyano-2-(6-{3-[4-(2-diethylaminoethyl)piperazin-1-yl]-3-oxopropyl}pyridin-2-ylmethylsulfanyl)pyrimidin-4-yl]phenyl}acetamide hydrochloride], the half-maximal effective concentration (EC50) in assay [1] turned out to be 3 nM. For the same compound, the “A1 Agonistic Action (%)” value at A1 receptor (test compound 10 nM) was determined as 3%; on A1 receptor (test compound 100 nM) it was 22%; on A1 receptor (test compound 1 μM), 50%. In addition, the “ΔIOP (mmHg)” value is −0.8 ± 0.4 mmHg in assay [2] (setting [3]); −5.1 ± 0.5 mmHg in assay [2] (setting [4]); −5.3 ± 0.9 mmHg in assay [2] (setting [5]); −4.0 ± 0.9 mmHg in assay [2] (setting [6]); −4.3 ± 0.9 mmHg in assay [2] (setting [7]); −1.3 ± 0.4 mmHg in assay [2] (setting [8]).

Regarding `CC(=O)Nc1ccc(-c2nc(SCc3cccc(CCC(=O)N4CCN(C)CC4)n3)nc(N)c2C#N)cc1` [Example 46, N-[4-(6-amino-5-cyano-2-{6-[3-(4-methylpiperazin-1-yl)-3-oxopropyl]pyridin-2-ylmethylsulfanyl}pyrimidin-4-yl)phenyl]-acetamide], in assay [1], the half-maximal effective concentration (EC50) was found to be 7.4 nM. In addition, the “A1 Agonistic Action (%)” value at A1 receptor (test compound 10 nM) is 4%; at A1 receptor (test compound 100 nM), 26%; at A1 receptor (test compound 1 μM), 45%. Besides, the “ΔIOP (mmHg)” value in assay [2] (setting [3]) is reported as −0.6 ± 0.6 mmHg; in assay [2] (setting [4]), −4.4 ± 0.8 mmHg; in assay [2] (setting [5]), −4.9 ± 0.6 mmHg; in assay [2] (setting [6]) it was −3.8 ± 0.7 mmHg; in assay [2] (setting [7]), −2.9 ± 0.5 mmHg; in assay [2] (setting [8]), −0.5 ± 0.6 mmHg.

For `CC(=O)Nc1ccc(-c2nc(SCc3cccc(CCC(=O)N4CCN(CCN5CCCC5)CC4)n3)nc(N)c2C#N)cc1.Cl` [Example 77, N-{4-[6-amino-5-cyano-2-(6-{3-oxo-3-[4-(2-pyrrolidin-1-ylethyl)piperazin-1-yl]propyl}pyridin-2-ylmethylsulfanyl)pyrimidin-4-yl]phenyl}acetamide hydrochloride], the concentration giving a half-maximal response (EC50) in assay [1] came to 9.5 nM. Also, the “A1 Agonistic Action (%)” value on A1 receptor (test compound 10 nM) is listed as 2%; on A1 receptor (test compound 100 nM), 18%; at A1 receptor (test compound 1 μM), 40%. Further, the “ΔIOP (mmHg)” value in assay [2] (setting [9]) is recorded as −0.8 ± 0.5 mmHg; in assay [2] (setting [10]), −5.0 ± 0.6 mmHg; in assay [2] (setting [11]), −5.1 ± 0.4 mmHg; in assay [2] (setting [12]) it was −4.4 ± 0.6 mmHg; in assay [2] (setting [13]), −4.9 ± 0.7 mmHg; in assay [2] (setting [14]) it was −3.1 ± 0.7 mmHg.

With `CC(=O)Nc1ccc(-c2nc(SCc3cccc(CCC(=O)N(C)CCN(C)C)n3)nc(N)c2C#N)cc1.Cl` [Example 62, 3-{6-[4-(4-acetylaminophenyl)-6-amino-5-cyanopyrimidin-2-ylsulfanylmethyl]pyridin-2-yl}-N-(2-dimethylaminoethyl)-N-methylpropionamide hydrochloride], the EC50 in assay [1] worked out at 5.1 nM. The “A1 Agonistic Action (%)” value at A1 receptor (test compound 10 nM) is 8%; on A1 receptor (test compound 100 nM), 30%; at A1 receptor (test compound 1 μM), 39%. The “ΔIOP (mmHg)” value is given as −1.2 ± 0.7 mmHg in assay [2] (setting [9]); −4.7 ± 0.5 mmHg in assay [2] (setting [10]); −5.1 ± 0.3 mmHg in assay [2] (setting [11]); −4.9 ± 0.3 mmHg in assay [2] (setting [12]); −3.6 ± 0.3 mmHg in assay [2] (setting [13]); −1.0 ± 0.6 mmHg in assay [2] (setting [14]).

Take `CCN(CC)CCN1CCN(C(=O)CCc2cccc(CSc3nc(N)c(C#N)c(-c4ccc(NC(C)=O)cc4)n3)n2)CC1.Cl` [Example 79, N-{4-[6-amino-5-cyano-2-(6-{3-[4-(2-diethylaminoethyl)piperazin-1-yl]-3-oxopropyl}pyridin-2-ylmethylsulfanyl)pyrimidin-4-yl]phenyl}acetamide hydrochloride]: the concentration giving a half-maximal response (EC50) in assay [1] worked out at 8.4 nM. The “A1 Agonistic Action (%)” value on A1 receptor (test compound 10 nM, hydrochloride) is listed as 0%; at A1 receptor (test compound 100 nM, hydrochloride), 12%; on A1 receptor (test compound 1 μM, hydrochloride) it was 45%. Also, the “ΔIOP (mmHg)” value is reported as 0.3 ± 0.9 mmHg in assay [2] (setting [9]); −3.9 ± 0.5 mmHg in assay [2] (setting [10]); −5.4 ± 0.7 mmHg in assay [2] (setting [11]); −5.8 ± 0.8 mmHg in assay [2] (setting [12]); −4.8 ± 0.7 mmHg in assay [2] (setting [13]); −2.8 ± 1.0 mmHg in assay [2] (setting [14]).

In the case of `CC(=O)Nc1ccc(-c2nc(SCc3cccc(CCC(=O)N4CCN(CCN(C(C)C)C(C)C)CC4)n3)nc(N)c2C#N)cc1.Cl` [Example 76, N-{4-[6-amino-5-cyano-2-(6-{3-[4-(2-diisopropylaminoethyl)piperazin-1-yl]-3-oxopropyl}pyridin-2-ylmethylsulfanyl)pyrimidin-4-yl]phenyl}acetamide hydrochloride], the EC50 in assay [1] was 7.6 nM. For the same compound, the “A1 Agonistic Action (%)” value at A1 receptor (test compound 10 nM) came out at 0%; at A1 receptor (test compound 100 nM), 14%; on A1 receptor (test compound 1 μM), 46%. Besides, the “ΔIOP (mmHg)” value in assay [2] (0.01% ophthalmic solution, rabbit, instillation, 0.5 hr after instillation, difference from pre-instillation) is listed as −3.7 ± 0.5 mmHg; in assay [2] (0.01% ophthalmic solution, rabbit, instillation, 1 hr after instillation, difference from pre-instillation), −6.0 ± 0.8 mmHg; in assay [2] (0.01% ophthalmic solution, rabbit, instillation, 2 hr after instillation, difference from pre-instillation), −5.7 ± 0.1 mmHg; in assay [2] (0.01% ophthalmic solution, rabbit, instillation, 3 hr after instillation, difference from pre-instillation), −6.1 ± 0.3 mmHg; in assay [2] (0.01% ophthalmic solution, rabbit, instillation, 4 hr after instillation, difference from pre-instillation), −5.2 ± 0.4 mmHg; in assay [2] (0.01% ophthalmic solution, rabbit, instillation, 6 hr after instillation, difference from pre-instillation), −3.6 ± 0.7 mmHg.
